Among the data in PMC10771423 (Applied Microbiology and Biotechnology, 2024) are Km values, retold here.

The target of assay [1] is T1, AldOTf (Thermopolyspora flexuosa, UniProt A0A543IX60).
T1 construct: gene FHX40_1862
As to the kind of experiment: oxygen consumption (oxygen electrode), steady-state kinetics. The format is biochemical. Conditions: read-out: KM (mM) / Glycerol^b; 50 mM KPi pH 7.5, 25 °C, O2 as co-substrate. The source says: oxygen consumption (oxygen electrode), steady-state kinetics on AldOTf

Assay [2] addresses T1, AldOTf. As to the kind of experiment: HRP-coupled AAP/DCHBS H2O2 assay, […] nm, steady-state kinetics. The format is biochemical. Conditions: read-out: KM (mM) / Xylitol^a; 50 mM KPi pH 7.5, 25 °C, O2 as co-substrate.

T1 sequence (A0A543IX60 entry or part of it): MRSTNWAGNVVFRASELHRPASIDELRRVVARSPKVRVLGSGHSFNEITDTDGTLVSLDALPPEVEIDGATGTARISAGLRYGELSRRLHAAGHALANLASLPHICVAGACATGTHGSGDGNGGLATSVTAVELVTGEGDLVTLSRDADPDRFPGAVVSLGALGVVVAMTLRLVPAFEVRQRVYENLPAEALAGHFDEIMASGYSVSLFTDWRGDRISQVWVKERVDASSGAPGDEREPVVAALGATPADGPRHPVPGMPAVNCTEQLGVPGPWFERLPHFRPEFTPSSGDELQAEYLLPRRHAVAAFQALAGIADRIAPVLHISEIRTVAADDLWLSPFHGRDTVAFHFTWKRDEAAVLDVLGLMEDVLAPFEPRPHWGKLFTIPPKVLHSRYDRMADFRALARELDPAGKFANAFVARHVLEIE

In the case of `OCC(O)CO` [glycerol], in assay [1], the Km is 41 mM.

Take `OC[C@@H](O)[C@H](O)[C@@H](O)CO` [xylitol]: the Km in assay [2] was 0.04 mM.
